Source: patent US20240383856A1 (Zedira GmbH, priority 2021, published 2024)

Tests used:
[1] = molecular target: T1, recombinant human transglutaminase 2 (Homo sapiens, UniProt P21980); assay: Transglutaminase assay (DCC-assay): incorporation of dansylcadaverine into dimethylcasein; type: biochemical; conditions: recombinant human TG2 10 nM; dansylcadaverine incorporation into dimethylcasein; read-out: IC50 TG2
T1 construct: purchased Zedira T022
T1 sequence (P21980 1-687): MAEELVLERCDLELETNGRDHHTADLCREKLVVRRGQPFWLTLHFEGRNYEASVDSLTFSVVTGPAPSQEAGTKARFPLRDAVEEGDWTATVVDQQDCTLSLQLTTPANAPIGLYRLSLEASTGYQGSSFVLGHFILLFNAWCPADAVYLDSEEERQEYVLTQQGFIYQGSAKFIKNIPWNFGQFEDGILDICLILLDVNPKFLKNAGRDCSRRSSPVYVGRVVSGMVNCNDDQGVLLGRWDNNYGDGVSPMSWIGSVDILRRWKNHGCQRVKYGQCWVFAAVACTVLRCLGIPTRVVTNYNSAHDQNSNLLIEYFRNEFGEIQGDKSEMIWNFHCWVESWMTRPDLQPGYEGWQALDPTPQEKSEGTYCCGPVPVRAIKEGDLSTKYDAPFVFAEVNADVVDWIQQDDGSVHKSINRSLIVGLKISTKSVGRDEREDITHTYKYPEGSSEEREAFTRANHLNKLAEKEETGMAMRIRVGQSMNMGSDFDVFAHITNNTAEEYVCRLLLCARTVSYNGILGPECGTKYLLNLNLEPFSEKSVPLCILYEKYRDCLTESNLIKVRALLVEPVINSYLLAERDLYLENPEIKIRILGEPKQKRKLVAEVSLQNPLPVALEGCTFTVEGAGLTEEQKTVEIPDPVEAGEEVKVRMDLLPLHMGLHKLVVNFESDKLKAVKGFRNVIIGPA
Experimental: To illustrate the advantage of branched alkyl moieties over aromatic moieties, we refer to reference compounds Ref. 2 (ZED1227, U.S. Pat. No. 9,434,763 B2) and Ref. 3 (A8, ZED1047). Inhibition data were determined using the classical fluorescent transamidation assay (dansylcadaverine incorporation into methylated casein, DCC-assay) as described [Buchold, C.; Hils, M.; Gerlach, U.; Weber, J.; Pelzer, C.; Heil, A.; Aeschlimann, D.; Pasternack, R. Features of ZED1227: The First-In-Class Tissue Transglutaminase Inhibitor Undergoing Clinical Evaluation for the Treatment of Celiac Disease. Cells 2022, 11, 1667. https://doi.org/10.3390/cells11101667]. Casein is one of the best known high molecular weight (24 kDa) protein substrates for transglutaminases. Please note, the IC50 value of Ref. 3 (A8) published in U.S. Pat. No. 9,434,763 B2 cannot be compared to the present data, relying on a fluorogenic isopeptidase assay.
To this extent, inhibition data were determined using the classical fluorescent transamidation assay (dansylcadaverine incorporation into methylated casein, DCC-assay) as described in Büchold et al. [Büchold, C.; Hils, M.; Gerlach, U.; Weber, J.; Pelzer, C.; Heil, A.; Aeschlimann, D.; Pasternack, R. Features of ZED1227: The First-In-Class Tissue Transglutaminase Inhibitor Undergoing Clinical Evaluation for the Treatment of Celiac Disease. Cells 2022, 11, 1667. https://doi.org/10.3390/cells11101667]. Casein is one of the best known high molecular weight (24 kDa) protein substrates for transglutaminases. Inhibition data of the inventive compounds was compared with inhibition of compounds disclosed in U.S. Pat. No. 9,434,763 B2, particularly, compound A8, which is denoted herein as Reference 3. It is noteworthy that the IC50 values of compounds A8 published in U.S. Pat. No. 9,434,763 B2 and E16 from U.S. Pat. No. 11,072,634 B2 cannot be compared to the present data, relying on a fluorogenic isopeptidase assay.
For the determination of potency of inhibitors against tissue transglutaminase, the incorporation of dansylcadaverine into dimethylcasein (Zedira product T036, Lorand et al., Anal Biochem, 1971, 44:221-31) was measured using recombinant human transglutaminase 2 (Zedira Product T022).
The tissue transglutaminase is diluted in buffer (50 mM Tris-HCl, 7.5 mM CaCl2), 150 mM NaCl, pH=7.4). The final concentration of TG2 in the assay is 10 nM.
A 10 mM inhibitor stock solution is prepared in DMSO, and from this a serial 1:2-fold dilution series is prepared also in DMSO. Each of the initial dilutions is subsequently diluted 1:50-fold with buffer (50 mM Tris-HCl, 7.5 mM CaCl2), 150 mM NaCl, pH=7.4) to yield the final working dilutions containing 2% (v/v) DMSO.
15 μl of inhibitor working dilution are added per well of a 96 well microtiter plate. As control, 15 μl of a 2% (v/v) DMSO solution prepared using the buffer mentioned above are added per well.
Immediately before starting the assay, 600 μl transglutaminase working solution are added to 11.4 ml assay buffer (50 mM Tris-HCl, 10 mM CaCl2), 10 mM glutathione, 2.5% glycerol, 16.7 µM dansylcadaverine, 4 uM N,N-dimethylcasein, 200 mM NaCl, pH=8.0). 285 μl of this reaction mix are added per well containing the inhibitor.
Increase in fluorescence is measured using λex=330 nm and λem=500 nm at 37° C. for 30 min. A slope of the increase in fluorescence between 20 and 30 min is calculated for determination of the IC50 value (inhibitor concentration at which 50% of the initial activity is blocked).
Analysis of enzymatic activity is performed by calculation of the slope of an increase in fluorescence intensity. IC50 values are calculated by plotting the enzymatic activity (as percentage from control containing 2% DMSO instead of inhibitor) against the inhibitor concentration. IC50 is defined as the inhibitor concentration blocking 50% of initial enzyme activity.

[2] = Caco-2 permeability assay (CacoReady kit); type: in vitro ADME; conditions: human, Caco-2, Caco-2 barrier, CacoReady kit; above 1×10^−6 cm/s classified as permeable
Experimental: Permeability coefficients (Papp values) were obtained from Caco-2 barrier studies predicting oral/intestinal bioavailability of the tested compounds. The assays were performed by using CacoReady™ ready-to-use kits from ReadyCell according to the manufacturers protocol.

[3] = logD by shake flask method (octanol / PBS pH 7.4, HPLC); type: physicochemical; conditions: octanol / PBS pH 7.4, shake flask
Experimental: In order to classify the inventive compounds according to their lipophilicity, LogD values (distribution coefficient) were determined by means of the well-established shake flask method, measuring the partition of a compound between an octanol and phosphate-buffered saline (PBS, pH 7.4) by HPLC.
The LogD is pH dependent and is a “predictor” for in-vivo properties. LogD combines lipophilicity (intrinsic structural property of the molecule, logP) and ionizability (pKa). Compounds with a moderate lipophilicity (LogD values from 0 to 3) are usually advantaged for oral absorption, being in balance between solubility and permeability. However, sophisticated formulation of a compound might improve oral bioavailability for highly lipophilic compounds.

Row | IC50 [1] [nM] | Papp [2] [×10⁻⁶ cm/s] | logD [3] | Structure (SMILES)
1 | 40 to 400 | < 1 | < 1 | CNC(=O)C(=O)CC[C@H](NC(=O)c1cncnc1C)C(=O)Nc1cccn(CC(=O)NC2C3CC4CC2CC(C(=O)O)(C4)C3)c1=O (stereo partly drawn) [II-173, (S)-N1-(1-(2-(5-carboxy-2-aminoadamantane)-2-oxoethyl)-2-oxo-1,2-dihydropyridin-3-yl)-N6-methyl-2-(4-methylpyrimidine-5-carboxamido)-5-oxohexanediamide]
2 | 40 to 400 | < 1 | < 1 | CNC(=O)C(=O)CC[C@H](NC(=O)c1cnnn1C)C(=O)Nc1cccn(CC(=O)N[C@@H]2C[C@H]3CC[C@@H]2C3)c1=O [II-130, (2S)-N1-(1-(2-((1R,2R,4S)-bicyclo[2.2.1]heptan-2-ylamino)-2-oxoethyl)-2-oxo-1,2-dihydropyridin-3-yl)-N6-methyl-2-(1-methyl-1H-1,2,3-triazole-5-carboxamido)-5-oxohexanediamide]
3 | 40 to 400 | < 1 | < 1 | CNC(=O)C(=O)CC[C@H](NC(=O)c1cnnn1C)C(=O)Nc1cccn(CC(=O)N[C@@H]2C[C@@H]3CC[C@H]2C3)c1=O [II-157, (S)-N1-(1-(2-((1S,2R,4R)-bicyclo[2.2.1]heptan-2-ylamino)-2-oxoethyl)-2-oxo-1,2-dihydropyridin-3-yl)-N6-methyl-2-(1-methyl-1H-1,2,3-triazole-5-carboxamido)-5-oxohexanediamide]
4 | 40 to 400 | 1 to 10 | 1 to 3 | NC(=O)C(=O)CC[C@H](NC(=O)c1cc(Cl)sc1Cl)C(=O)Nc1cccn(CC(=O)NC2C3CC4CC(C3)CC2C4)c1=O (stereo partly drawn) [II-125, (S)-2-(2,5-dichlorothiophene-3-carboxamido)-N1-(1-(2-(2-adamantylamino)-2-oxoethyl)-2-oxo-1,2-dihydropyridin-3-yl)-5-oxohexanediamide]
5 | < 40 | 1 to 10 | 3 to 5 | CNC(=O)C(=O)CC[C@H](NC(=O)c1cc(Br)c(Br)s1)C(=O)Nc1cccn(CC(=O)NC2C3CC4CC(C3)CC2C4)c1=O (stereo partly drawn) [II-45, (S)-2-(4,5-dibromothiophene-2-carboxamido)-N1-(1-(2-(2-adamantylamino)-2-oxoethyl)-2-oxo-1,2-dihydropyridin-3-yl)-N6-methyl-5-oxohexanediamide]
6 | 40 to 400 | < 1 | < 1 | CNC(=O)C(=O)CC[C@H](NC(=O)c1snnc1C)C(=O)Nc1cccn(CC(=O)N[C@@H]2C[C@@H]3CC[C@H]2C3)c1=O [II-156, (S)-N1-(1-(2-((1S,2R,4R)-bicyclo[2.2.1]heptan-2-ylamino)-2-oxoethyl)-2-oxo-1,2-dihydropyridin-3-yl)-N6-methyl-2-(4-methyl-1,2,3-thiadiazole-5-carboxamido)-5-oxohexanediamide]
7 | 40 to 400 | < 1 | < 1 | CNC(=O)C(=O)CC[C@H](NC(=O)[C@H]1COCCN1)C(=O)Nc1cccn(CC(=O)NC2C3CC4CC(C3)CC2C4)c1=O (stereo partly drawn) [II-60, (S)-N1-(1-(2-(2-adamantylamino)-2-oxoethyl)-2-oxo-1,2-dihydropyridin-3-yl)-N6-methyl-2-((R)-morpholine-3-carboxamido)-5-oxohexanediamide]
8 | 40 to 400 | 1 to 10 | 1 to 3 | CNC(=O)C(=O)CC[C@H](NC(=O)c1oc2ccccc2c1C)C(=O)Nc1cccn(CC(=O)NC23CCCC4CC(CCC42)C3)c1=O (stereo partly drawn) [II-103, (S)-N1-(1-(2-(4-homoisotwistane-3-amino)-2-oxoethyl)-2-oxo-1,2-dihydropyridin-3-yl)-N6-methyl-2-(3-methylbenzofuran-2-carboxamido)-5-oxohexanediamide]
9 | 40 to 400 | 1 to 10 | 1 to 3 | CNC(=O)C(=O)CC[C@H](NC(=O)c1sc(Cl)nc1Cl)C(=O)Nc1cccn(CC(=O)NC2C3CC4CC(C3)CC2C4)c1=O (stereo partly drawn) [II-17, (S)-2-(2,4-dichlorothiazole-5-carboxamido)-N1-(1-(2-(2-adamantylamino)-2-oxoethyl)-2-oxo-1,2-dihydropyridin-3-yl)-N6-methyl-5-oxohexanediamide]
10 | 40 to 400 | 1 to 10 | 1 to 3 | CNC(=O)C(=O)CC[C@H](NC(=O)c1oc2ccccc2c1C)C(=O)Nc1cccn(CC(=O)NC23CCC(CC2)C3)c1=O [II-95, (S)-N1-(1-(2-(bicyclo[2.2.1]heptan-1-ylamino)-2-oxoethyl)-2-oxo-1,2-dihydropyridin-3-yl)-N6-methyl-2-(3-methylbenzofuran-2-carboxamido)-5-oxohexanediamide]
11 | 40 to 400 | 1 to 10 | 1 to 3 | CNC(=O)C(=O)CC[C@H](NC(=O)c1oc(Br)cc1C)C(=O)Nc1cccn(CC(=O)NC2C3CC4CC(C3)CC2C4)c1=O (stereo partly drawn) [II-25, (S)-2-(5-bromo-3-methylfuran-2-carboxamido)-N1-(1-(2-(2-adamantylamino)-2-oxoethyl)-2-oxo-1,2-dihydropyridin-3-yl)-N6-methyl-5-oxohexanediamide]
12 | 40 to 400 | < 1 | < 1 | CNC(=O)C(=O)CC[C@H](NC(=O)c1oc2ccccc2c1C)C(=O)Nc1cccn(CC(=O)NC2C3CC4CC2CC(O)(C4)C3)c1=O (stereo partly drawn) [II-68, (S)-N1-(1-(2-(5-hydroxyadamantane-2-amino)-2-oxoethyl)-2-oxo-1,2-dihydropyridin-3-yl)-N6-methyl-2-(3-methylbenzofuran-2-carboxamido)-5-oxohexanediamide]
13 | 400 to 2500 | 1 to 10 | 3 to 5 | CNC(=O)C(=O)CC[C@H](NC(=O)c1c[nH]cc1C(C)(C)C)C(=O)Nc1cccn(CCC23CC4CC(CC(C4)C2)C3)c1=O [II-164]
